Results as given in paper PMC8231504, “A Biophysical Insight of Camptothecin Biodistribution: Towards a Molecular Understanding of Its Pharmacokinetic Issues” (Pharmaceutics, 2021).
Read-outs that look alike come from different tables or passages of the source.

Experiments:
[1] = Distribution coefficient in membrane/aqueous system, normal cell membrane model; assay type: physicochemical; details: for LogD: normal cells membranes (DOPC, DOPE, DOPS, CHOL, SM)
Description: (§1) Single-lipid liposomal membrane models composed of DMPC, or lipid mixture liposomal membrane models mimetic of breast cancer cell membrane—DOPC (25%), CHOL (15%), EPC (31.8%), DOPS (17%), DOPE (8%), cardiolipin (2.5%) and SM (0.7%)—mimetic of cell membrane—[…], DOPE (20%), DOPS (20%), CHOL (10%), and SM (10%)—and, blood–brain barrier (BBB) membrane constituted by the BPL—phosphocholine (PC) (12.6%), phosphatidyl ethanolamine (PE) (33.1%), PI (4.1%), phosphatidyl serine (PS) (18.5%), and PA (0.8%) were prepared by the classical thin film hydration method. Briefly, lipids were co-dissolved in chloroform:methanol (8:2, v/v) and the solvents were evaporated under a stream of nitrogen in a rotary evaporator (Buchi R-200; Sigma-Aldrich Corp., Buchs, Switzerland). The resultant dried lipid film was hydrated with buffer at temperature of 40 ± 0.1 °C and lipid colloidal dispersions were formed by alternating vortex and thermostatic bath (40 ± 0.1 °C). […]
(§2) The distribution coefficient (LogD) of CPT between membrane and aqueous buffered solution (pH 5.8 for breast cancer cell membrane model and pH 7.4 for cell membrane model and BBB membrane model) was determined by fluorescence spectroscopy and derivative UV-Vis spectroscopy. […] The samples contained a fixed concentration of CPT (2 × 10^−5M) and increasing concentrations of lipid suspension (0 to 1 × 10^−3 M for absorbance or 3 × 10^−3 M for fluorescence). […] The fluorescence spectra were also measured on a Perkin-Elmer LS-50B spectrofluorimeter. The emission spectra were obtained in 380–480 nm range with λexcitation = 250 nm and the excitation spectra were recorded in 220–400 nm range with λemission = 430 nm. […] The second and third derivative spectra of the absorbance UV-Vis spectra were determined to improve the resolution of spectral bands and to eliminate the spectral interferences due to light scattered by the lipid suspensions. […]
(§3) Because CPT is a fluorescent compound with spectral variations due to its distribution between the lipid/aqueous phases (e.g., λ shifts), logD of CPT can also be calculated using fluorescence spectroscopy. […]

[2] = Literature in vivo steady-state volume of distribution; details: human, converted from 190 ± 46 L·m^−2 with body surface 1.9 m^2 and body weight 70 kg, ref [71], read-out: in vivo VDSS
[3] = Distribution coefficient in membrane/aqueous system, BBB membrane model; assay type: physicochemical; details: BBB endothelial membrane, pH 7.4, derivative spectroscopy
Description: Single-lipid liposomal membrane models composed of DMPC, or lipid mixture liposomal membrane models mimetic of breast cancer cell membrane—DOPC (25%), CHOL (15%), EPC (31.8%), DOPS (17%), DOPE (8%), cardiolipin (2.5%) and SM (0.7%)—mimetic of cell membrane—DOPC (45%), DOPE (20%), DOPS (20%), CHOL (10%), and SM (10%)—and, blood–brain barrier (BBB) membrane constituted by the BPL—phosphocholine (PC) (12.6%), phosphatidyl ethanolamine (PE) (33.1%), PI (4.1%), phosphatidyl serine (PS) (18.5%), and PA (0.8%) were prepared by the classical thin film hydration method. […]
The distribution coefficient (LogD) of CPT between membrane and aqueous buffered solution (pH 5.8 for breast cancer cell membrane model and pH 7.4 for cell membrane model and BBB membrane model) was determined by fluorescence spectroscopy and derivative UV-Vis spectroscopy. […] The samples contained a fixed concentration of CPT (2 × 10^−5M) and increasing concentrations of lipid suspension (0 to 1 × 10^−3 M for absorbance or 3 × 10^−3 M for fluorescence). […] The fluorescence spectra were also measured on a Perkin-Elmer LS-50B spectrofluorimeter. The emission spectra were obtained in 380–480 nm range with λexcitation = 250 nm and the excitation spectra were recorded in 220–400 nm range with λemission = 430 nm. […]

[4] = set-up: method as in PMID 22520977; details: after 2 h in contact with human blood; ref [3]; cited from earlier work
[5] = set-up: method as in PMID 30869853, PMID 21430952; details: DMPC or DMPG, pH 7.4, fluorescence anisotropy; ref [16],[45],[46]; cited from earlier work
[6] = set-up: method as in doi:10.1021/jp035260s; details: DOPG, pH 7.4, fluorescence anisotropy; ref [47]; cited from earlier work
[7] = tested on: C26 colon carcinomas; set-up: method as in PMID 18384903; details: 2.5 mg∙Kg^−1 dose of CPT; ref [79]; cited from earlier work
[8] = tested on: HSA; test: Modelling biodistribution using in vitro parameters; set-up: species or system human; details: human, plasma proteins (calculated from in vitro Kbind to HSA); from Kbind to HSA, Equation (14); read-out: PPB (converted)
Experimental: (§4) The logD value obtained can be used with in silico descriptors to predict many biodistribution parameters using mathematical methods. As a result, the value of logD was used to predict CPT bioaccumulation (as expressed by the bioaccumulation constant, Kbioaccumulation), which is associated to tissue blood flow (Q) and its volume (V):(9) Kbioaccumulation=Q/V·logD
(§5) To determine if the drug is stored in adipose tissue, the adipose store index (ASI) of CPT was calculated using the following equation [28]:(10) ASI=1.81·logD−logD+0.40
(§6) Furthermore, the obtained distribution coefficient in the BPL model system—logD(BBB)—can be compared to logBB, according to Waterbeem and Kansy. The logarithm of the ratio of drug concentrations in brain and blood is known as logBB, and it represents the drug’s relative affinity variations between plasma proteins and brain tissue:(11) logBB=0.388·logDBBB−0.00618·Vm+1.359 where Vm is the membrane model system’s molar volume, determined from the individual lipid volumes.
(§7) The steady-state volume distribution (VDSS) is one of the most useful PK criteria for describing a drug’s biodistribution. The effect of the PPB, permeability, partitioning, and active transport on the drug’s physiological distribution is translated by this predictor. Based on human clinical PK evidence of a wide set of drugs (670 drugs), the first physiological statistical model of VDSS for predicting the biodistribution of neutral and basic drugs was proposed:(12) VDSS=VP·(1+RE/L)+fu·VP(VE/VP−RE/L)+VR·fu/fut where VP and VE are the plasma and extracellular fluid volumes with corresponding value in human of […]; RE/I represents the ratio of extravascular and intravascular proteins, and is strictly referred to the distribution of albumin, assuming an approximate value of 1.4; VR is defined as the physical volume into which the drug distributes minus the extracellular space (0.380 L∙Kg^−1); fu and fut are, respectively, the unbound drug fraction in plasma and the unbound fraction in tissues.
(§8) The fu values can be obtained by the following equation [33]:(13) fu=1−PPB/100 where PPB can be obtained from the in vitro values of Kbind:(14) PPB=100/1+1/CP·Kbind where CP is the physiological plasma protein concentration (750 μM).
(§9) Lastly, fut can be obtained by the following equation [32]:(15) logfut=−0.0289−0.1739·logD−0.8324·fi(7.4)+1.0400·logfu where fi(7.4) is the fraction of ionized drug at pH 7.4 which has been calculated considering the pH hydrolysis and conversion of CPT from lactone neutral form to the anionic form carboxylate reported.

[9] = as above; set-up: species or system human; details: for predicted off-target distribution / bioaccumulation: Equation (9)
Experimental: as §4, §5, §6, §7, §8, §9

[10] = target: HSA (Homo sapiens, UniProt P02768); test: Plasma protein binding by steady-state fluorescence quenching
Experimental: The fluorescence excitation and emission spectra of increasing CPT concentrations (0 to 3 × 10^−4 M) with a constant HSA concentration (2.0 × 10^−6 M) were acquired at 37.0 ± 0.1 °C (Perkin-Elmer LS-50B spectrofluorimeter, Waltham, USA), with excitation at 280 nm and emission at 342 nm, each with 5 nm slits. The following binding isotherm equation can be used to explain the quenching of HSA fluorescence caused by increasing CPT concentrations:(6) % Quenching=ymáx·n/1+Kdiss/[CPT] where ymax is the maximum fluorescence quenching measured, n is the number of binding sites of HSA to CPT, and Kdiss is the dissociation constant (i.e., the inverse of binding constant, Kbind). In addition, the following equation expresses the relationship between the Kdiss value and the Gibbs free energy ( Δ G) of complex binding:(7) ΔGbind=[…] where R is the ideal gas constant and T is the temperature in Kelvin (K).

[11] = tested on: BSA; set-up: method as in Li et al. [17]; details: ref Li et al. [17]; cited from earlier work
[12] = fluorescence spectroscopy, ref [18],[47],[48] (table), [18],[49],[50]; cited from earlier work
[13] = set-up: method as in doi:10.1021/jp035260s; details: DOPC, pH 7.4, fluorescence anisotropy; ref [47]; cited from earlier work
[14] = set-up: method as in PMID 30654016; details: at lower concentrations (5 µM); ref [38]; cited from earlier work
[15] = Distribution coefficient in membrane/aqueous system, cancer cell membrane model; assay type: physicochemical; details: for LogD: cancer cells membranes, 37 °C
Description: as §1, §2, §3

HSA (Homo sapiens, UniProt P02768), sequence (P02768 25-609): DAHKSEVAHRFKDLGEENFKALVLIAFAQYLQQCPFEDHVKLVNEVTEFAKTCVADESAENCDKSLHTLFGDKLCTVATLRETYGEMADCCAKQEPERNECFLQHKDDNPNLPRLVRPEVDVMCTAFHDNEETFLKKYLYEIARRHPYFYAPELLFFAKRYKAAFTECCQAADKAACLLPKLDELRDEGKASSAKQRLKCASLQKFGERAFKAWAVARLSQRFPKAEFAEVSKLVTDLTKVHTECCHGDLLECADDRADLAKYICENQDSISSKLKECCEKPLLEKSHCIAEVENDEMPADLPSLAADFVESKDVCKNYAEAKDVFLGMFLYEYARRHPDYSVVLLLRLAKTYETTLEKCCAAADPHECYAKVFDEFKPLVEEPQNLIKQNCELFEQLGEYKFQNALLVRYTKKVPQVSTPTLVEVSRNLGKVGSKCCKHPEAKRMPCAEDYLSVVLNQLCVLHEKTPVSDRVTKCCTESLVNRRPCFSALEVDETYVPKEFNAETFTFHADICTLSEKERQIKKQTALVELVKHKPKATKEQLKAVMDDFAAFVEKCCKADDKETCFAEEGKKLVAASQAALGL

CC[C@@]1(O)C(=O)OCc2c1cc1n(c2=O)Cc2cc3ccccc3nc2-1 [CPT, Camptothecin]
average logD ([1]; average over normal and cancer cell membrane models and both methods): 2.89 ± 0.23
LogD ([1]; pH 7.4, derivative UV-Vis spectroscopy): 2.78 ± 0.28 ^ns
LogD ([1]; pH 7.4, fluorescence spectroscopy): 2.63 ± 0.15 ^ns
Vd [2]: 5.16 ± 1.25 L/kg
LogD [3]: 3.64 ± 0.15
CPT lactone form remaining [4]: 5%
LogD [5]: 2.00 ± 0.16
LogD [6]: 1.97 ± 0.05
AUC (blood plasma) [7]: 1.1 µg·h/mL
fraction unbound [8]: 0.0805
adipose storage index (ASI) ([9]; Equation (10), from logD): 2.53 ± 0.12
LogBB (brain accumulation index) ([9]; Equation (11), from logD in BBB endothelial membrane): 2.76 ± 0.06
predicted off-target distribution / bioaccumulation ([9]; adrenal glands, from logD in normal cell membrane model): 61.44%
free drug available for distribution to the tissues ([9]; from PPB): 8.05%
predicted off-target distribution / bioaccumulation ([9]; heart): 3.07%
fraction unbound ([9]; human, plasma (calculated from PPB), Equation (13), read-out: unbound fraction in plasma fu): 0.081
fraction unbound ([9]; human, tissues (predicted), Equation (15), read-out: unbound fraction in tissues fut): 0.0054
Vd ([9]; human, Equation (12), from in vitro logD and PPB, read-out: VDSS (steady-state volume of distribution)): 5.75 ± 0.932 L/kg
predicted off-target distribution / bioaccumulation ([9]; kidneys): 3.07%
predicted off-target distribution / bioaccumulation ([9]; thyroid): 30.72%
Kd ([10]; HSA 2.0 × 10^−6 M, 37 °C, read-out: dissociation constant Kdiss): 65.7 µM
binding constant Kbind ([10]; HSA, 37 °C): 1.52 ± 0.26 × 10^4 M^−1
number of binding sites n ([10]; HSA, 37 °C): 1
Gibbs free energy ΔGbind ([10]; HSA, Equation (7)): -5.93 ± 0.10 kcal/mol
binding constant Kbind with BSA [11]: 37200 M⁻¹
LogD / logP in octanol:water [12]: 1.73 ± 0.08
LogD [13]: 1.55 ± 0.05
Papp [14]: 3e-05 cm/s
LogD ([15]; pH 5.8, derivative UV-Vis spectroscopy): 3.14 ± 0.13 ^ns
LogD ([15]; pH 5.8, fluorescence spectroscopy): 3.01 ± 0.31 ^ns
logD in the cancer cell membrane model ([15]; mean of the two methods, pH 5.8): 3.08 ± 0.22
